Measurements from patent US8710065B2, “Tricyclic inhibitors of kinases” (AbbVie Inc., priority 2011, dated 2014).

target: T1, GST-tagged-Wee1 kinase (Homo sapiens, UniProt P30291); assay: Wee1 time-resolved fluorescence equilibrium binding assay (displacement of Oregon Green-labeled ATP-competitive kinase probe); conditions: read-out: Wee-1 inhibition (Ki)
T1 construct: purchased Carnabio (Carna Biosciences) 05-177
Experimental: Wee1 kinase was assayed using a time-resolved fluorescence equilibrium binding assay monitoring displacement of a rapidly reversible Oregon Green-labeled ATP-competitive kinase probe (N-(2-(2-(2-(4-(4-(5-chloro-4-(2-(1-hydroxycyclobutyl)thiazol-5-yl)-1H-pyrrolo[2,3-b]pyridin-2-yl)phenyl)piperazin-1-yl)ethoxy)ethoxy)ethyl)-2′,7′-difluoro-3′,6′-dihydroxy-3-oxo-3H-spiro[isobenzofuran-1,9′-xanthene]-5-carboxamide) by competitive Wee1 inhibitors.
Table 1 depicts enzyme inhibition data (Ki) for exemplary compounds.

T1 sequence (P30291 whole entry): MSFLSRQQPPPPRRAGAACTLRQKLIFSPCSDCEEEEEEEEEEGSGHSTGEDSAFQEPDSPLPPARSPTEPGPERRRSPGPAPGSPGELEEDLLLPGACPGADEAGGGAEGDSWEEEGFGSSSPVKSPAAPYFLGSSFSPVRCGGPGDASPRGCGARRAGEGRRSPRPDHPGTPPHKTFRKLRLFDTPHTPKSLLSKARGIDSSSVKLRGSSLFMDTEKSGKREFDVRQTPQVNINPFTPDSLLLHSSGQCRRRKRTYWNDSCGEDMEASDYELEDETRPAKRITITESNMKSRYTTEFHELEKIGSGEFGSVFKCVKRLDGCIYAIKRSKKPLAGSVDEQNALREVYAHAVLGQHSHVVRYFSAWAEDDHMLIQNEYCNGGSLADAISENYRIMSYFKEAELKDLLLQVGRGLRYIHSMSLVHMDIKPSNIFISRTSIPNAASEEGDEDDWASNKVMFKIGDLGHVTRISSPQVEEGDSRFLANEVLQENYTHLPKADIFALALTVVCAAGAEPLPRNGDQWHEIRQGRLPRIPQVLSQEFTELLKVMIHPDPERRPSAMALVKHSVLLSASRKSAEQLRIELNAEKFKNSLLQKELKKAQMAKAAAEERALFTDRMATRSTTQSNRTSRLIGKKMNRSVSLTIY

Ki [nM]	Structure (SMILES)
< 10	CC(C)N1CCN(c2ccc(Nc3ncc4c(=O)n(-c5ccccc5Cl)c5nccn5c4n3)cc2F)CC1 [Example 33, 6-(2-chlorophenyl)-2-({3-fluoro-4-[4-(propan-2-yl)piperazin-1-yl]phenyl}amino)imidazo[1,2-a]pyrimido[5,4-e]pyrimidin-5(6H)-one]
< 10	CN1CCc2ccc(Nc3ncc4c(=O)n(-c5ccccc5Cl)c5nccn5c4n3)cc2C1 [Example 34, 6-(2-chlorophenyl)-2-[(2-methyl-1,2,3,4-tetrahydroisoquinolin-7-yl)amino]imidazo[1,2-a]pyrimido[5,4-e]pyrimidin-5(6H)-one]
< 10	CN(C)CCOc1ccc(Nc2ncc3c(=O)n(-c4ccccc4Cl)c4nccn4c3n2)cc1 [Example 35, 6-(2-chlorophenyl)-2-({4-[2-(dimethylamino)ethoxy]phenyl}amino)imidazo[1,2-a]pyrimido[5,4-e]pyrimidin-5(6H)-one]
10 to 100	O=c1c2cnc(Nc3ccc(OCCN4CCOCC4)cc3)nc2n2ccnc2n1-c1ccccc1Cl [Example 36, 6-(2-chlorophenyl)-2-({4-[2-(morpholin-4-yl)ethoxy]phenyl}amino)imidazo[1,2-a]pyrimido[5,4-e]pyrimidin-5(6H)-one]
< 10	Cc1cc(Nc2ncc3c(=O)n(-c4ccccc4Cl)c4nccn4c3n2)ccc1N1CCCN(C)CC1 [Example 37, 6-(2-chlorophenyl)-2-{[3-methyl-4-(4-methyl-1,4-diazepan-1-yl)phenyl]amino}imidazo[1,2-a]pyrimido[5,4-e]pyrimidin-5(6H)-one]
< 10	CN1CCC(c2ccc(Nc3ncc4c(=O)n(-c5ccccc5Cl)c5nccn5c4n3)cc2)CC1 [Example 38, 6-(2-chlorophenyl)-2-{[4-(1-methylpiperidin-4-yl)phenyl]amino}imidazo[1,2-a]pyrimido[5,4-e]pyrimidin-5(6H)-one]
10 to 100	CN1CCN(c2ccc(Nc3ncc4c(=O)n(-c5ccccc5)c5nccn5c4n3)cc2)CC1 [Example 39, 2-{[4-(4-methylpiperazin-1-yl)phenyl]amino}-6-phenylimidazo[1,2-a]pyrimido[5,4-e]pyrimidin-5(6H)-one]
< 10	Cc1ccc(-n2c(=O)c3cnc(Nc4ccc(N5CCN(C)CC5)cc4)nc3n3ccnc23)c(Cl)c1 [Example 40, 6-(2-chloro-4-methylphenyl)-2-{[4-(4-methylpiperazin-1-yl)phenyl]amino}imidazo[1,2-a]pyrimido[5,4-e]pyrimidin-5(6H)-one]
10 to 100	O=C(NC1CCCCC1)c1ccc(Nc2ncc3c(=O)n(-c4ccccc4Cl)c4nccn4c3n2)cc1 [Example 41, 4-{[6-(2-chlorophenyl)-5-oxo-5,6-dihydroimidazo[1,2-a]pyrimido[5,4-e]pyrimidin-2-yl]amino}-N-cyclohexylbenzamide]
10 to 100	CN1CCN(C(=O)c2ccc(Nc3ncc4c(=O)n(-c5ccccc5Cl)c5nccn5c4n3)cc2)CC1 [Example 42, 6-(2-chlorophenyl)-2-({4-[(4-methylpiperazin-1-yl)carbonyl]phenyl}amino)imidazo[1,2-a]pyrimido[5,4-e]pyrimidin-5(6H)-one]
10 to 100	O=c1c2cnc(Nc3ccc(-c4cn[nH]c4)cc3)nc2n2ccnc2n1-c1ccccc1Cl [Example 43, 6-(2-chlorophenyl)-2-{[4-(1H-pyrazol-4-yl)phenyl]amino}imidazo[1,2-a]pyrimido[5,4-e]pyrimidin-5(6H)-one]
< 10	CCN(CC)CCOc1ccc(Nc2ncc3c(=O)n(-c4ccccc4Cl)c4nccn4c3n2)cc1 [Example 44, 6-(2-chlorophenyl)-2-({4-[2-(diethylamino)ethoxy]phenyl}amino)imidazo[1,2-a]pyrimido[5,4-e]pyrimidin-5(6H)-one]
10 to 100	O=c1c2cnc(Nc3ccc(-c4cccnc4)cc3)nc2n2ccnc2n1-c1ccccc1Cl [Example 45, 6-(2-chlorophenyl)-2-{[4-(pyridin-3-yl)phenyl]amino}imidazo[1,2-a]pyrimido[5,4-e]pyrimidin-5(6H)-one]
10 to 100	O=C(N[C@H]1CC[C@H](O)CC1)c1ccc(Nc2ncc3c(=O)n(-c4ccccc4Cl)c4nccn4c3n2)cc1 [Example 46, 4-{[6-(2-chlorophenyl)-5-oxo-5,6-dihydroimidazo[1,2-a]pyrimido[5,4-e]pyrimidin-2-yl]amino}-N-(trans-4-hydroxycyclohexyl)benzamide]
10 to 100	CCNC(=O)c1ccc(Nc2ncc3c(=O)n(-c4ccccc4Cl)c4nccn4c3n2)cc1 [Example 47, 4-{[6-(2-chlorophenyl)-5-oxo-5,6-dihydroimidazo[1,2-a]pyrimido[5,4-e]pyrimidin-2-yl]amino}-N-ethylbenzamide]
10 to 100	O=C(c1ccc(Nc2ncc3c(=O)n(-c4ccccc4Cl)c4nccn4c3n2)cc1)N1CCC(O)CC1 [Example 48, 6-(2-chlorophenyl)-2-({4-[(4-hydroxypiperidin-1-yl)carbonyl]phenyl}amino)imidazo[1,2-a]pyrimido[5,4-e]pyrimidin-5(6H)-one]

Ki [nM]	Structure (SMILES)
10 to 100	O=C(Nc1ccncc1)c1ccc(Nc2ncc3c(=O)n(-c4ccccc4Cl)c4nccn4c3n2)cc1 [Example 49, 4-{[6-(2-chlorophenyl)-5-oxo-5,6-dihydroimidazo[1,2-a]pyrimido[5,4-e]pyrimidin-2-yl]amino}-N-(pyridin-4-yl)benzamide]
< 10	CCN(CC)CCCOc1ccc(Nc2ncc3c(=O)n(-c4ccccc4Cl)c4nccn4c3n2)cc1F [Example 50, 6-(2-chlorophenyl)-2-({4-[3-(diethylamino)propoxy]-3-fluorophenyl}amino)imidazo[1,2-a]pyrimido[5,4-e]pyrimidin-5(6H)-one]
< 10	CN1CCN(CCOc2ccc(Nc3ncc4c(=O)n(-c5ccccc5Cl)c5nccn5c4n3)cc2F)CC1 [Example 51, 6-(2-chlorophenyl)-2-({3-fluoro-4-[2-(4-methylpiperazin-1-yl)ethoxy]phenyl}amino)imidazo[1,2-a]pyrimido[5,4-e]pyrimidin-5(6H)-one]
< 10	COCCN1CCc2ccc(Nc3ncc4c(=O)n(-c5ccccc5Cl)c5nccn5c4n3)cc2C1 [Example 52, 6-(2-chlorophenyl)-2-{[2-(2-methoxyethyl)-1,2,3,4-tetrahydroisoquinolin-7-yl]amino}imidazo[1,2-a]pyrimido[5,4-e]pyrimidin-5(6H)-one]
< 10	CN1Cc2cc(Nc3ncc4c(=O)n(-c5ccccc5Cl)c5nccn5c4n3)ccc2C(C)(C)C1 [Example 53, 6-(2-chlorophenyl)-2-[(2,4,4-trimethyl-1,2,3,4-tetrahydroisoquinolin-7-yl)amino]imidazo[1,2-a]pyrimido[5,4-e]pyrimidin-5(6H)-one]
10 to 100	Cc1c(O)cccc1-n1c(=O)c2cnc(Nc3ccccc3)nc2n2ccnc12 [Example 54, 6-(3-hydroxy-2-methylphenyl)-2-(phenylamino)imidazo[1,2-a]pyrimido[5,4-e]pyrimidin-5(6H)-one]
< 10	CN1CCN(c2ccc(Nc3ncc4c(=O)n(-c5c(Cl)cccc5Cl)c5nccn5c4n3)cc2)CC1 [Example 55, 6-(2,6-dichlorophenyl)-2-{[4-(4-methylpiperazin-1-yl)phenyl]amino}imidazo[1,2-a]pyrimido[5,4-e]pyrimidin-5(6H)-one]
10 to 100	Nc1ccc(Nc2ncc3c(=O)n(-c4ccccc4Cl)c4nccn4c3n2)cc1 [Example 56, 2-[(4-aminophenyl)amino]-6-(2-chlorophenyl)imidazo[1,2-a]pyrimido[5,4-e]pyrimidin-5(6H)-one]
10 to 100	CC(=O)Nc1ccc(Nc2ncc3c(=O)n(-c4ccccc4Cl)c4nccn4c3n2)cc1 [Example 57, N-(4-{[6-(2-chlorophenyl)-5-oxo-5,6-dihydroimidazo[1,2-a]pyrimido[5,4-e]pyrimidin-2-yl]amino}phenyl)acetamide]
10 to 100	O=C(Nc1ccc(Nc2ncc3c(=O)n(-c4ccccc4Cl)c4nccn4c3n2)cc1)C1CCCC1 [Example 58, N-(4-{[6-(2-chlorophenyl)-5-oxo-5,6-dihydroimidazo[1,2-a]pyrimido[5,4-e]pyrimidin-2-yl]amino}phenyl)cyclopentanecarboxamide]
10 to 100	O=C(Nc1ccc(Nc2ncc3c(=O)n(-c4ccccc4Cl)c4nccn4c3n2)cc1)C1CCC(O)CC1 (stereo not shown) [Example 59, N-(4-{[6-(2-chlorophenyl)-5-oxo-5,6-dihydroimidazo[1,2-a]pyrimido[5,4-e]pyrimidin-2-yl]amino}phenyl)-4-hydroxycyclohexanecarboxamide]
< 10	CN1CCC(C(=O)Nc2ccc(Nc3ncc4c(=O)n(-c5ccccc5Cl)c5nccn5c4n3)cc2)CC1 [Example 60, N-(4-{[6-(2-chlorophenyl)-5-oxo-5,6-dihydroimidazo[1,2-a]pyrimido[5,4-e]pyrimidin-2-yl]amino}phenyl)-1-methylpiperidine-4-carboxamide]
< 10	O=C(Nc1ccc(Nc2ncc3c(=O)n(-c4ccccc4Cl)c4nccn4c3n2)cc1)c1ccncc1 [Example 61, N-(4-{[6-(2-chlorophenyl)-5-oxo-5,6-dihydroimidazo[1,2-a]pyrimido[5,4-e]pyrimidin-2-yl]amino}phenyl)pyridine-4-carboxamide]
< 10	Cc1cccc(C)c1-n1c(=O)c2cnc(Nc3ccc4c(c3)CN(C)CC43CC3)nc2n2ccnc12 [Example 62, 6-(2,6-dimethylphenyl)-2-[(2′-methyl-2′,3′-dihydro-1′H-spiro[cyclopropane-1,4′-isoquinolin]-7′-yl)amino]imidazo[1,2-a]pyrimido[5,4-e]pyrimidin-5(6H)-one]
10 to 100	O=c1c2cnc(Nc3ccc(N4CCN(Cc5cccc(Cl)c5)CC4)cc3)nc2n2ccnc2n1-c1ccccc1Cl [Example 63, 2-({4-[4-(3-chlorobenzyl)piperazin-1-yl]phenyl}amino)-6-(2-chlorophenyl)imidazo[1,2-a]pyrimido[5,4-e]pyrimidin-5(6H)-one]
